{
  "source": "patent US20160271263A1",
  "about": "(Novo Nordisk A/S, priority 2010, published 2016)",
  "note": "Numbered stars: 1 amine (or outer) side, 2 acyl side, 3 side chain; on linkers, the order of the positions; unused ones are H or OH. Side chains are listed from the residue outwards. Peptide text beside a SMILES is read from it. * marks the point of attachment. C18 diacid = O=C(O)CCCCCCCCCCCCCCCCC(=O)*; γGlu = O=C(O)[C@H](CCC(=O)[*:2])N[*:1]; AEEA = NCCOCCOCC(=O)O",
  "data": [
    {"molecular_target": "glucagon receptor (Homo sapiens, UniProt P47871)", "sequence (P47871 26-477)": "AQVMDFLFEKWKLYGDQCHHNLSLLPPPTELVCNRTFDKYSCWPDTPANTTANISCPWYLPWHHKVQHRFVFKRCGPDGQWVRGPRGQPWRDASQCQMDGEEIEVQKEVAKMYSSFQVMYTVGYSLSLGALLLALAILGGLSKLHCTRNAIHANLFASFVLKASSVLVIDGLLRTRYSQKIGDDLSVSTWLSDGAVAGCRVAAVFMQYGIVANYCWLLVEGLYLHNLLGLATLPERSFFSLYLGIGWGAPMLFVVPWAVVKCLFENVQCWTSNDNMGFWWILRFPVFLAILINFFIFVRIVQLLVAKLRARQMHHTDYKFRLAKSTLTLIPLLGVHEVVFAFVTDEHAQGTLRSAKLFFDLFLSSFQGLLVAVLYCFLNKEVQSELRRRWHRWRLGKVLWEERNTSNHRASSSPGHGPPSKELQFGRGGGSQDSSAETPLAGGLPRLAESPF", "test": "cell-based", "units": {"EC50": "pM"}, "values": [
      {"smiles": "CC(C)C[C@H](NC(=O)[C@H](Cc1ccc(O)cc1)NC(=O)[C@H](CCCCN)NC(=O)[C@H](CO)NC(=O)[C@H](Cc1ccc(O)cc1)NC(=O)[C@H](CC(=O)O)NC(=O)[C@H](CO)NC(=O)[C@@H](NC(=O)[C@H](Cc1ccccc1)NC(=O)[C@@H](NC(=O)CNC(=O)[C@H](CCC(N)=O)NC(=O)[C@H](CO)NC(=O)[C@@H](N)Cc1c[nH]cn1)[C@@H](C)O)[C@@H](C)O)C(=O)N[C@@H](CC(=O)O)C(=O)N[C@@H](CO)C(=O)N[C@@H](CCCCN)C(=O)N[C@@H](CCCNC(=N)N)C(=O)N[C@@H](C)C(=O)N[C@@H](CCC(N)=O)C(=O)N[C@@H](CCC(=O)O)C(=O)N[C@@H](Cc1ccccc1)C(=O)N[C@H](C(=O)N[C@@H](CCCCNC(=O)COCCOCCNC(=O)COCCOCCNC(=O)CC[C@H](NC(=O)CCCCCCCCCCCCCCCCC(=O)O)C(=O)O)C(=O)N[C@@H](Cc1c[nH]c2ccccc12)C(=O)N[C@@H](CC(C)C)C(=O)N[C@@H](CC(C)C)C(=O)N[C@@H](CO)C(=O)N[C@H](C(N)=O)[C@@H](C)O)C(C)C", "note": "[Example 40, N^ε24-([2-[2-[2-[[2-[2-[2-[[(4S)-5-hydroxy-4-[(18-hydroxy-18-oxooctadecanoyl)amino]-5-oxopentanoyl]amino]ethoxy]ethoxy]acetyl]amino]ethoxy]ethoxy]acetyl]) [Lys^17, Glu^21,Lys^24,Leu^27,Ser^28]Glucagon peptide amide] (H-HSQGTFTSDYSKYLDSKRAQEFVK([AEEA-AEEA-γGlu-C18 diacid])WLLST-NH2; N-terminus assumed)", "EC50": 7},
      {"smiles": "CC(C)C[C@H](NC(=O)[C@H](Cc1ccc(O)cc1)NC(=O)[C@H](CCCCN)NC(=O)[C@H](CO)NC(=O)[C@H](Cc1ccc(O)cc1)NC(=O)[C@H](CC(=O)O)NC(=O)[C@H](CO)NC(=O)[C@@H](NC(=O)[C@H](Cc1ccccc1)NC(=O)[C@@H](NC(=O)CNC(=O)[C@H](CCC(N)=O)NC(=O)[C@H](CO)NC(=O)[C@@H](N)Cc1c[nH]cn1)[C@@H](C)O)[C@@H](C)O)C(=O)N[C@@H](CC(=O)O)C(=O)N[C@@H](CO)C(=O)N[C@@H](CCCCN)C(=O)N[C@@H](CCCNC(=N)N)C(=O)N[C@@H](C)C(=O)N[C@@H](CCC(N)=O)C(=O)N[C@@H](CCC(=O)O)C(=O)N[C@@H](Cc1ccccc1)C(=O)N[C@H](C(=O)N[C@@H](CCCCNC(=O)COCCOCCNC(=O)COCCOCCNC(=O)CC[C@H](NC(=O)CCCCCCCCCCCCCCCCC(=O)O)C(=O)O)C(=O)N[C@@H](Cc1c[nH]c2ccccc12)C(=O)N[C@@H](CC(C)C)C(=O)N[C@@H](CC(C)C)C(=O)N[C@@H](CCC(=O)O)C(=O)N[C@H](C(N)=O)[C@@H](C)O)C(C)C", "note": "[Example 41, N^ε24-([2-[2-[2-[[2-[2-[2-[[(4S)-5-hydroxy-4-[(18-hydroxy-18-oxooctadecanoyl)amino]-5-oxopentanoyl]amino]ethoxy]ethoxy]acetyl]amino]ethoxy]ethoxy]acetyl])[Lys^17, Glu^21,Lys^24,Leu^27,Glu^28,]Glucagon peptide amide] (H-HSQGTFTSDYSKYLDSKRAQEFVK([AEEA-AEEA-γGlu-C18 diacid])WLLET-NH2; N-terminus assumed)", "EC50": 3},
      {"smiles": "CC(C)C[C@H](NC(=O)[C@H](Cc1ccc(O)cc1)NC(=O)[C@H](CCCCN)NC(=O)[C@H](CO)NC(=O)[C@H](Cc1ccc(O)cc1)NC(=O)[C@H](CC(=O)O)NC(=O)[C@H](CO)NC(=O)[C@@H](NC(=O)[C@H](Cc1ccccc1)NC(=O)[C@@H](NC(=O)CNC(=O)[C@H](CCC(N)=O)NC(=O)[C@H](CO)NC(=O)[C@@H](N)Cc1c[nH]cn1)[C@@H](C)O)[C@@H](C)O)C(=O)N[C@@H](CC(=O)O)C(=O)N[C@@H](CO)C(=O)N[C@@H](CCCCN)C(=O)N[C@@H](CCCNC(=N)N)C(=O)N[C@@H](C)C(=O)N[C@@H](CCC(N)=O)C(=O)N[C@@H](CCC(=O)O)C(=O)N[C@@H](Cc1ccccc1)C(=O)N[C@H](C(=O)N[C@@H](CCC(N)=O)C(=O)N[C@@H](Cc1c[nH]c2ccccc12)C(=O)N[C@@H](CC(C)C)C(=O)N[C@@H](CC(C)C)C(=O)N[C@@H](CC(N)=O)C(=O)N[C@H](C(=O)N[C@@H](CCCCNC(=O)COCCOCCNC(=O)COCCOCCNC(=O)CC[C@H](NC(=O)CCCCCCCCCCCCCCCCC(=O)O)C(=O)O)C(N)=O)[C@@H](C)O)C(C)C", "note": "[Example 42, N^α-([Lys^17, Glu^21, Leu^27] Glucagonyl) N^ε-([2-[2-[2-[[2-[2-[2-[[(4S)-5-hydroxy-4-[(18-hydroxy-18-oxooctadecanoyl)amino]-5-oxopentanoyl]amino]ethoxy]ethoxy]acetyl]amino]ethoxy]ethoxy]acetyl]) Lysinyl amide] (H-HSQGTFTSDYSKYLDSKRAQEFVQWLLNTK([AEEA-AEEA-γGlu-C18 diacid])-NH2; N-terminus assumed)", "EC50": 17},
      {"smiles": "CC(C)C[C@H](NC(=O)[C@H](Cc1ccc(O)cc1)NC(=O)[C@H](CCCCN)NC(=O)[C@H](CO)NC(=O)[C@H](Cc1ccc(O)cc1)NC(=O)[C@H](CC(=O)O)NC(=O)[C@H](CO)NC(=O)[C@@H](NC(=O)[C@H](Cc1ccccc1)NC(=O)[C@@H](NC(=O)CNC(=O)[C@H](CCC(N)=O)NC(=O)[C@H](CO)NC(=O)[C@@H](N)Cc1c[nH]cn1)[C@@H](C)O)[C@@H](C)O)C(=O)N[C@@H](CC(=O)O)C(=O)N[C@@H](CO)C(=O)N[C@@H](CCCCN)C(=O)N[C@@H](CCCNC(=N)N)C(=O)N[C@@H](C)C(=O)N[C@@H](CCC(N)=O)C(=O)N[C@@H](CCC(=O)O)C(=O)N[C@@H](Cc1ccccc1)C(=O)N[C@H](C(=O)N[C@@H](CCC(N)=O)C(=O)N[C@@H](CCCCNC(=O)COCCOCCNC(=O)COCCOCCNC(=O)CC[C@H](NC(=O)CCCCCCCCCCCCCCCCC(=O)O)C(=O)O)C(=O)N[C@@H](CC(C)C)C(=O)N[C@@H](CC(C)C)C(=O)N[C@@H](CC(N)=O)C(=O)N[C@H](C(N)=O)[C@@H](C)O)C(C)C", "note": "[Example 44, N^ε25 ([2-[2-[2-[[2-[2-[2-[[(4S)-5-hydroxy-4-[(18-hydroxy-18-oxooctadecanoyl)amino]-5-oxopentanoyl]amino]ethoxy]ethoxy]acetyl]amino]ethoxy]ethoxy]acetyl]) [Lys^17, Glu^21, Lys^25 Leu^27] Glucagon peptide amide] (H-HSQGTFTSDYSKYLDSKRAQEFVQK([AEEA-AEEA-γGlu-C18 diacid])LLNT-NH2; N-terminus assumed)", "EC50": 12},
      {"smiles": "CC(C)C[C@H](NC(=O)[C@H](Cc1ccc(O)cc1)NC(=O)[C@H](CCCCN)NC(=O)[C@H](CO)NC(=O)[C@H](Cc1ccc(O)cc1)NC(=O)[C@H](CC(=O)O)NC(=O)[C@H](CO)NC(=O)[C@@H](NC(=O)[C@H](Cc1ccccc1)NC(=O)[C@@H](NC(=O)CNC(=O)[C@H](CCC(N)=O)NC(=O)[C@H](CO)NC(=O)[C@@H](N)Cc1c[nH]cn1)[C@@H](C)O)[C@@H](C)O)C(=O)N[C@@H](CC(=O)O)C(=O)N[C@@H](CO)C(=O)N[C@@H](CCCCN)C(=O)N[C@@H](CCCNC(=N)N)C(=O)N[C@@H](C)C(=O)N[C@@H](CCC(N)=O)C(=O)N[C@@H](CCC(=O)O)C(=O)N[C@@H](Cc1ccccc1)C(=O)N[C@H](C(=O)N[C@@H](CCC(N)=O)C(=O)N[C@@H](Cc1c[nH]c2ccccc12)C(=O)N[C@@H](CC(C)C)C(=O)N[C@@H](CCCCNC(=O)COCCOCCNC(=O)COCCOCCNC(=O)CC[C@H](NC(=O)CCCCCCCCCCCCCCCCC(=O)O)C(=O)O)C(=O)N[C@@H](CC(N)=O)C(=O)N[C@H](C(N)=O)[C@@H](C)O)C(C)C", "note": "[Example 45, N^ε27 ([2-[2-[2-[[2-[2-[2-[[(4S)-5-hydroxy-4-[(18-hydroxy-18-oxooctadecanoyl)amino]-5-oxopentanoyl]amino]ethoxy]ethoxy]acetyl]amino]ethoxy]ethoxy]acetyl]) [Lys^17, Glu^21, Lys^27] Glucagon peptide amide] (H-HSQGTFTSDYSKYLDSKRAQEFVQWLK([AEEA-AEEA-γGlu-C18 diacid])NT-NH2; N-terminus assumed)", "EC50": 7},
      {"smiles": "CC(C)C[C@H](NC(=O)[C@H](CC(C)C)NC(=O)[C@H](Cc1c[nH]c2ccccc12)NC(=O)[C@H](CCC(N)=O)NC(=O)[C@@H](NC(=O)[C@H](Cc1ccccc1)NC(=O)[C@H](CCC(=O)O)NC(=O)[C@H](CCC(N)=O)NC(=O)[C@H](C)NC(=O)[C@H](CCCNC(=N)N)NC(=O)[C@H](CCCCN)NC(=O)[C@H](CO)NC(=O)[C@H](CC(=O)O)NC(=O)[C@H](CC(C)C)NC(=O)[C@H](Cc1ccc(O)cc1)NC(=O)[C@H](CCCCN)NC(=O)[C@H](CO)NC(=O)[C@H](Cc1ccc(O)cc1)NC(=O)[C@H](CC(=O)O)NC(=O)[C@H](CO)NC(=O)[C@@H](NC(=O)[C@H](Cc1ccccc1)NC(=O)[C@@H](NC(=O)CNC(=O)[C@H](CCC(N)=O)NC(=O)[C@H](CO)NC(=O)[C@@H](N)Cc1c[nH]cn1)[C@@H](C)O)[C@@H](C)O)C(C)C)C(=O)N[C@@H](CC(N)=O)C(=O)N[C@@H](CCCCNC(=O)COCCOCCNC(=O)COCCOCCNC(=O)CC[C@H](NC(=O)CCCCCCCCCCCCCCCCC(=O)O)C(=O)O)C(N)=O", "note": "[Example 46, N^ε29 ([2-[2-[2-[[2-[2-[2-[[(4S)-5-hydroxy-4-[(18-hydroxy-18-oxooctadecanoyl)amino]-5-oxopentanoyl]amino]ethoxy]ethoxy]acetyl]amino]ethoxy]ethoxy]acetyl]) [Lys^17, Glu^21, Leu^27, Lys^29] Glucagon peptide amide] (H-HSQGTFTSDYSKYLDSKRAQEFVQWLLNK([AEEA-AEEA-γGlu-C18 diacid])-NH2; N-terminus assumed)", "EC50": 3},
      {"smiles": "CC(C)C[C@H](NC(=O)[C@H](Cc1ccc(O)cc1)NC(=O)[C@H](CCCNC(=N)N)NC(=O)[C@H](CO)NC(=O)[C@H](Cc1ccc(O)cc1)NC(=O)[C@H](CC(=O)O)NC(=O)[C@H](CO)NC(=O)[C@@H](NC(=O)[C@H](Cc1ccccc1)NC(=O)[C@@H](NC(=O)CNC(=O)[C@H](CCC(N)=O)NC(=O)[C@H](CO)NC(=O)[C@@H](N)Cc1c[nH]cn1)[C@@H](C)O)[C@@H](C)O)C(=O)N[C@@H](CC(=O)O)C(=O)N[C@@H](CO)C(=O)N[C@@H](CCCNC(=N)N)C(=O)N[C@@H](CCCNC(=N)N)C(=O)N[C@@H](C)C(=O)N[C@@H](CCC(N)=O)C(=O)N[C@@H](CC(=O)O)C(=O)N[C@@H](Cc1ccccc1)C(=O)N[C@H](C(=O)N[C@@H](CCCCNC(=O)COCCOCCNC(=O)COCCOCCNC(=O)CC[C@H](NC(=O)CCCCCCCCCCCCCCCCC(=O)O)C(=O)O)C(=O)N[C@@H](Cc1c[nH]c2ccccc12)C(=O)N[C@@H](CC(C)C)C(=O)N[C@@H](CC(C)C)C(=O)N[C@@H](CC(N)=O)C(=O)N[C@H](C(=O)O)[C@@H](C)O)C(C)C", "note": "[Example 47] (H-HSQGTFTSDYSRYLDSRRAQDFVK([AEEA-AEEA-γGlu-C18 diacid])WLLNT-OH; N-terminus and C-terminus assumed)", "EC50": 109}
    ]}
  ]
}
